Source: US6395717B1, “Therapeutic drug for endotoxin blood symptom and multi-organ failure induced thereby” (priority 1995, dated 2002)

Assays:
[1] = test system: renal failure induced by endotoxin; experiment: Effect upon renal failure induced by endotoxin (kidney clearance of inulin and paraaminohippuric acid); type: in vivo, Whister-strain rats; conditions: 10 mg/Kg intravenous
Procedure: Into each of ten Whister-strain rats (8 to 9 week age) having undergone cannulation at the carotid canal and the bladder was intraveneously drip-infused a 4% manitol solution containing inulin (5 mg/ml) and paraaminohippuric acid (2.5 mg/ml) at a rate of 0.1144 ml/min. Thirty minutes thereafter, a physiological saline solution of sialic acid ([…]) was administered, at a rate of 0.2 ml/100 g (dosage: 10 mg/Kg), to each of the rats administered with sialic acid, whereas the same amount of physiological saline was rapidly interveneously injected to the control rats. Another thirty minutes thereafter, a physiological saline solution of endotoxin was interaveneously injected to the rats (dosage: 0.25 mg/Kg). Then, blood and urine were sampled over 90 minutes, and the concentrations of inulin and paraaminohippuric acid were measured. A kidney clearance was calculated according to the following formula. Urine was collected at an interval of 15 minutes after the administration of sialic acid or physiological saline (in FIG. 2, −15 to 0 minutes, 0 to 15 minutes, 15 to 30 minutes, 30 to 45 minutes and 45 to 60 minutes), and blood was sampled at a middle point of a time period during urine-collecting. The clearance values are shown at such middle points for the respective fractions.
Kidney clearance=Amount of the drug recovered in urine collected in the collecting time period÷Concentration of the drug in plasma at the middle point
The concentration of inulin was measured by the Dishe & Borefreund's method (Z. Dishe and E. Borefreund, J. Biol. Chem., 192, 583-587 (1951)), and the concentration of paraaminohippuric acid was measured by the Marshall's method (E. K. Marshall, J. Biol. Chem., 122, 263-273 (1937)).
Results of the ratio in the filtering speed through glomerulus are shown in FIG. 2, and results of the ratio in renal plasma flow are in FIG. 3. In both the figures, the ordinate means the ratio in the filtering speed through glomerulus or the ratio in the renal plasma flow for 30 minutes between the intraveneous dip infusion of inulin and paraaminohippuric acid and the intraveneous injection of sialic acid or physiological saline.

endotoxin-shock = experiment: Effect of sialic acid in reduction of endotoxin-shock (survival 24 hours after endotoxin); type: in vivo, SMA-strain male mice; conditions: living mice 24 hours later
Procedure: Tests were conducted with respect to endotoxin-sensitive, SMA-strain male mice (20 to 30 g) used: (1) sixteen control mice, (2) eight mice each administrated with sialic acid and (3) six mice each administrated with a polymer of sialic acid. (1) With respect to the control mice, 0.1 ml/10 g of physiological saline was peritoneally administrated 30 minutes before the administration of an endotoxin. (2) With respect to the mice administrated with sialic acid, a solution in which 100 mg of sialic acid was dissolved in 10 ml of physiological saline or a ten-times diluted solution thereof was peritoneally administrated to the mouse at a rate of 0.1 ml/10 g of the mouse (Dosage: 100 mg/Kg, 10 mg/Kg). (3) With respect to the mice administrated with the sialic acid polymer, a solution in which 100 mg of a dimer or a trimmer of sialic acid was dissolved in 10 ml of physiological saline or a ten-times was peritoneally administrated to the mouse at a rate of 0.1 ml/10 g (Dosage: 100 mg/Kg). Thirty minutes after the administration, a physiological saline solution of endotoxin (10 mg/ml) was peritoneally administrated to the mouse at a rate of […] (administrated amount: 100 mg/Kg). Then, the number of living mice 24 hours later was checked. […]

[2] = endotoxin 0.25 mg/Kg iv 30 minutes later, 30 minutes after endotoxin administration

## CC(=O)N[C@H]1[C@H]([C@H](O)[C@H](O)CO)OC(O)(C(=O)O)C[C@@H]1O (stereo partly drawn) [sialic acid, N-acetylneuraminic acid]
[1]; before endotoxin administration
  influence on the ratio in the filtering speed through glomerulus and the ratio in the renal plasma flow, sialic acid alone: no influence was observed
[1]; [2]
  decrease of the ratio in the filtering speed through glomerulus: 30%
  decrease of the ratio in the renal plasma flow: 20%
[1]; risk degree of 5% versus control rats
  reduction in both the ratio in the filtering speed through glomerulus and the ratio in the renal plasma flow due to endotoxin: significantly prevented
endotoxin-shock; 10 mg/Kg peritoneally 30 minutes before endotoxin 100 mg/Kg peritoneally, n=8
  survival rate: 50%
endotoxin-shock; 100 mg/Kg peritoneally 30 minutes before endotoxin 100 mg/Kg peritoneally
  survival rate: 87.5%
